The source of these data is patent publication US10228365B2, “Method for measuring carbohydrate metabolism ability, and composition for use in said method” (priority 2012, dated 2019).

Series [1] has as its system glucose metabolism ability. The experiment in a line: Breath test under fasting and glucose-loaded conditions. The format is in vivo, rats (OLETF, LETO). The method, then: OLETF rats, which are diabetic animal models, were used as experimental animals, and LETO rats were used as a control. More specifically, after being fasted for 20 hours, Group 1 (control group: […], male, n=5) and Group 2 (diabetes group; OLETF rats, male, n=6) were subjected to the following test.
An aqueous U-^13C-glucose solution (50 μmol/4 mL/kg) was orally administered to Group 1 (control group) and Group 2 (diabetes group) under fasting conditions. In each group, expired air was collected before the U-^13C-glucose administration (0 minutes) and at each point in time (10, 20, 30, 40, 50, 60, 80, 100, and 120 minutes) after the U-^13C-glucose administration. Δ^13C(‰) was determined with a mass spectrometer for expired air analysis (ABCA: produced by Sercon) from the concentration of ^13CO2 excreted in the expired air.
• (2-2-1) An aqueous glucose solution (450 mg/4 mL/kg) and an aqueous U-^13C-glucose solution (50 μmol/4 mL/kg) were orally administered simultaneously to the experimental animals of (1), i.e., Group 1 (control group) and Group 2 (diabetes group). As in (2-1), expired air was collected in each group before the U-^13C-glucose administration (0 minutes) and at each, point in time (10, 20, 30, 40, 50, 60, 80, 100, and 120 minutes) after the U-^13C-glucose administration. Δ^13C(‰) was determined from the concentration of ^13CO2 excreted in the expired air. […]

In series [2] the test system is glucose metabolism ability. The conditions noted are these: rat, in vivo, iv.
Protocol: Fasted rats (male, SD rats) as experimental animals were divided into four groups (n=4 per group). The above-prepared ^13C-glucose solutions were individually intravenously administered to the rats in each group (1-^13-Glc-administration group, 2-^13C-Glc-administration group, 3-^13C-Glc-administration group, and U-^13-Glc-adrainistration group) in an amount of 1 mL/kg. Expired air was collected before the administration of each ^13C-glucose solution (0 minutes) and at each point in time (10, 20, 30, 40, 50, 60, 80, 100, and 120 minutes) after the administration of each ^13C-glucose solution, Δ^13C(‰) was determined with a mass spectrometer for expired air analysis (ABCA: produced by Sercon) from the concentration of ^13CO2 excreted in the expired air.
The Δ^13C(‰) was determined by measuring the ^13CO2/^12CO2 concentration ratio (δ^13C value) in the expired air before the administration of each ^13C-glucose solution (0 minutes) and in the expired air at each point in time for collecting the expired air (t minutes) after the administration of each ^13C-glucose solution, and calculating Δ^13C(‰) from the difference between the δ^13C value (δ^13Ct) at each collection point in time (t) and the δ^13C value (δ^13C0) before the administration (δ^13Ct−δ^13C0) (the same applies to the below-described Experimental Examples).
The subject of series [3] is glucose metabolism ability. The experiment in a line: Evaluation of treatment effect of a therapeutic agent for diabetes with U-13C-glucose breath test. The series is classed as in vivo, ZDF rats. As to conditions: 300 mg/kg oral for three days; for expired air pattern (changes in the Δ13C(‰)) after vs before administration: non-fasting, FIG. 12. The protocol:
Three groups of ZDF rats (Group A: healthy group (n=4), Group B: diabetes severe onset group (n=6), and Group C: diabetes moderate onset group (n=6)) were used as experimental animals. In the experiment, these ZDF rats were allowed free access to water and feed (containing saccharide, fat, and protein) (MF: Oriental Yeast Co., Ltd.). More specifically, the following experiment was performed under non-fasting conditions.
Metformin (Wako Pure Chemical Industries, Ltd., which is an active ingredient of biguanide therapeutic agents for diabetes (generic name: Melbin), was orally administered to the rats of these groups in an amount of 300 mg/kg every morning for three days. A U-^13C-glucose solution prepared by the method described in (1) of Experimental Example 1 was intravenously administered 3 hours after the administration of metformin on day 3.
Expired air was collected in the rats of each group before the U-^13-glucose administration (0 minutes) and at each point in time (10, 20, 30, 40, 50, 60, 80, 100, and 120 minutes) after the U-^13C-glucose administration. Δ^13(‰) was determined with a mass spectrometer for expired air analysis (ABCA: produced by Sercon) from the concentration of ^13CO2 excreted in the expired air.

For series [4], the system named is glucose metabolism ability. Briefly: Evaluation of treatment effect after administration of insulin with 1-13C-glucose breath test. The series is classed as in vivo, rats (Wistar. The conditions noted are these: STZ rats, FIG. 13. The method, then: A control group (Wistar rats, male, n=3) and a type 1 diabetes group (STZ rats, male, n=3) were used as experimental animals. In the experiment, these rats were allowed free access to water and feed (containing saccharide, fat, and protein) (MF: Oriental Yeast Co., Ltd.). More specifically, the following experiment was performed under non-fasting conditions.
Rats one week after STZ (streptosocin: SIGMA) were intravenously administered in an amount of 65 mg/mL/kg was used as the type 1 diabetes group (STZ rats).
Insulin (SIGMA) was subcutaneously administered to the type 1 diabetes group in an amount of 30 U/body. […] Expired air was collected in the rats of the groups (control group, type 1 diabetes group, insulin-administered 4 h-diabetes group, and insulin-administered 24 h-diabetes group) before the 1-^13C-glucose administration (0 minutes) and at each point in time (10, 20, 30, 40, 50, 60, 80, 100, and 120 minutes) after the 1-^13C-glucose administration. Δ^13C(‰) was determined with a mass spectrometer for expired air analysis (ABCA: produced by Sercon) from the concentration of ^13CO2 excreted in the expired air.

Turning to `OC[C@H]1OC(O)[C@H](O)[C@@H](O)[C@@H]1O` (stereo partly drawn) [U-^13C-glucose], the “difference between the Δ13C(‰) value of Group 1 (control group) and Group 2 (diabetes group)” value in series [1] (fasting conditions, oral 50 μmol/4 mL/kg, FIG. 6) is given as “small”. Moreover, in series [1] (rat, in vivo), the “difference in the expired air response between Group 1 (control group) and Group 2 (diabetes group)” value is reported as “further widened”; the “expired air pattern of Group 1 (control group) compared with Group 2 (diabetes group)” value is “significantly high”.

Regarding `OC[C@H]1OC(O)[C@H](O)[13C@@H](O)[C@@H]1O` (stereo partly drawn) [3-^13C-glucose], the “Δ13C(‰) in the expired air up to 30 minutes after the glucose solution administration (rank among 13C-glucoses)” value in series [2] was “highest”.

For the compound `CN(C)C(=N)N=C(N)N` [therapeutic agent for diabetes, Metformin], the “expired air pattern (changes in the Δ13C(‰)) after vs before administration” value in series [3] (Group B diabetes severe onset) and in series [3] (Group C diabetes moderate onset) was “higher values” throughout. Further, the glucose metabolism ability result in series [3] (diabetes onset groups B and C) is “enhanced”.

“insulin: Insulin (SIGMA), subcutaneously administered”: the “Δ13C(‰) compared with control group” value in series [4] (4 hours after 30 U/body subcutaneous) is given as “almost the same as that of the control group”. For the same compound, in series [4] (24 hours after 30 U/body subcutaneous), the “expired air pattern (change in the Δ13C(‰))” value is “low value”.
